Laboratory results: ChEMBL document CHEMBL3526059, “Reversible inhibition of human carboxylesterases by acyl glucuronides” (Drug Metab Dispos, 2013)

How the values were obtained:
[1] = Half life in phosphate buffer at 10 uM at pH 7.4 by LC/TOF-MS analysis; format: physicochemical
[2] = Half life in buffer at pH 7.4 by 1H NMR spectroscopic analysis in presence of human urine; format: physicochemical; conditions: buffer with human urine
Liver carboxylesterase 1 [3] = biological target: T1, Liver carboxylesterase 1 (Homo sapiens, UniProt P23141); test: Reversible inhibition of human CES1 assessed as hydrolysis of 4NPA to 4NP
T1 sequence (P23141 whole entry): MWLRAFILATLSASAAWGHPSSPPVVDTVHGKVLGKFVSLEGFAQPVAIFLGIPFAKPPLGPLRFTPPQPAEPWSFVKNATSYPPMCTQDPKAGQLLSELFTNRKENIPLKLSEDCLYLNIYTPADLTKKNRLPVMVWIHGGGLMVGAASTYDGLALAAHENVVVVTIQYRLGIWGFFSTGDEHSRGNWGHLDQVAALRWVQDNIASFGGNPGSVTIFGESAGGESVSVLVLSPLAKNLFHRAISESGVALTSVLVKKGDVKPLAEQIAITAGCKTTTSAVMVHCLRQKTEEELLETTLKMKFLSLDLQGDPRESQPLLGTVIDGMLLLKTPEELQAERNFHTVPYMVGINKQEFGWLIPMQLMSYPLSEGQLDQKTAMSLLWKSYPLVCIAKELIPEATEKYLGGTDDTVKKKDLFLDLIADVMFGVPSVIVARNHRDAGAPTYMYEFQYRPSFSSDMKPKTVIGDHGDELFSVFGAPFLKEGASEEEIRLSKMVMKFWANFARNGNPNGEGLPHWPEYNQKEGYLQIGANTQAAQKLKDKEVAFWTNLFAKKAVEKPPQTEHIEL

Cocaine esterase [4] = biological target: T2, Cocaine esterase (Homo sapiens, UniProt O00748); test: Inhibition of human CES2 assessed as hydrolysis of 4NPA to 4NP at 1 mM by spectrophotometric analysis; conditions: 1000 µM
T2 sequence (O00748 whole entry): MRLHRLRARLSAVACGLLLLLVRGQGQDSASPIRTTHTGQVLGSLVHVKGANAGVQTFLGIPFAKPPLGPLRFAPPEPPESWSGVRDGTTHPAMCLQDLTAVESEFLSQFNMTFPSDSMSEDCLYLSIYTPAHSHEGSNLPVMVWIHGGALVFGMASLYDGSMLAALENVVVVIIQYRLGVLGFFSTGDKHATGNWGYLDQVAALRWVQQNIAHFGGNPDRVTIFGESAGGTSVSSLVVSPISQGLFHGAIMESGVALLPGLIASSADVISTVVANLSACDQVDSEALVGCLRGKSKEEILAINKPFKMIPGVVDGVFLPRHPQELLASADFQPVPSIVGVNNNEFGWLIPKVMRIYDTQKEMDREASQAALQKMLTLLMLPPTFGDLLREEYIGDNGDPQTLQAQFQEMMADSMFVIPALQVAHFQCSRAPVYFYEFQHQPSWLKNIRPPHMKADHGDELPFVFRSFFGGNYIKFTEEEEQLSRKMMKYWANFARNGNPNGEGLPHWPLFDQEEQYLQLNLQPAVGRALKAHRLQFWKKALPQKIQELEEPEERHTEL

Liver carboxylesterase 1 [5] = biological target: T1, Liver carboxylesterase 1; test: Inhibition of human CES1 assessed as hydrolysis of 4NPA to 4NP at 1 mM by spectrophotometric analysis; conditions: 1000 µM
Cocaine esterase [6] = biological target: T2, Cocaine esterase; test: Inhibition of human CES2
Liver carboxylesterase 1 [7] = biological target: T1, Liver carboxylesterase 1; test: Time-dependent inhibition of human CES1 assessed as hydrolysis of 4NPA to 4NP preincubated for 30 mins followed by 4NPA addition
Liver carboxylesterase 1 [8] = biological target: T1, Liver carboxylesterase 1; test: Activity of human CES1 assessed as loss of 1-O-acyl glucuronide at 100 uM measured at 30 mins by LC/TOF-MS analysis relative to control; format: ADME; conditions: 0.5 h
Liver carboxylesterase 1 [9] = biological target: T1, Liver carboxylesterase 1; test: Time-dependent inhibition of human CES1 assessed as hydrolysis of 4NPA to 4NP preincubated for 10 mins followed by 4NPA addition
Liver carboxylesterase 1 [10] = biological target: T1, Liver carboxylesterase 1; test: Activity of human CES1 assessed as loss of 1-O-acyl glucuronide at 100 uM measured at 60 mins by LC/TOF-MS analysis relative to control; format: ADME; conditions: 1 h
Liver carboxylesterase 1 [11] = biological target: T1, Liver carboxylesterase 1; test: Time-dependent inhibition of human CES1 assessed as hydrolysis of 4NPA to 4NP preincubated for 60 mins followed by 4NPA addition
Liver carboxylesterase 1 [12] = biological target: T1, Liver carboxylesterase 1; test: Activity of human CES1 assessed as loss of 1-O-acyl glucuronide at 100 uM measured at 10 mins by LC/TOF-MS analysis relative to control; format: ADME
[13] = Half life in phosphate buffer at pH 7.4 by HPLC analysis; format: physicochemical
[14] = Half life of the compound; format: physicochemical

| half-life at 10 µM [1] | Ki (Liver carboxylesterase 1 [3]) | inhibition (INH) (Cocaine esterase [4]) | SMILES | other results |
| --- | --- | --- | --- | --- |
| 3.67 h | 355 µM | Not Active | CC(C)Cc1ccc(C(C)C(=O)O[C@@H]2O[C@H](C(=O)O)[C@@H](O)[C@H](O)[C@H]2O)cc1 (mixture of isomers) | half-life [2]: 3.5 h |
| 0.252 h |  | Not Active | O=C(O[C@@H]1O[C@H](C(=O)O)[C@@H](O)[C@H](O)[C@H]1O)c1cn(Cc2c(F)cccc2F)nn1 | inhibition (INH) (Liver carboxylesterase 1 [5]): Not Active |
|  |  |  | CCCC(CCC)C(=O)O [VALPROIC ACID] | Ki (Cocaine esterase [6]): 7900 µM |
| 5.02 h | 24.8 µM | Not Active | O=C(O)[C@H]1O[C@@H](OC(=O)[C@H](c2ccccc2Cl)N2CCc3sccc3C2)[C@H](O)[C@@H](O)[C@@H]1O |  |
| 0.537 h | 4.32 µM | Not Active | O=C(Cc1ccccc1Nc1c(Cl)cccc1Cl)O[C@@H]1O[C@H](C(=O)O)[C@@H](O)[C@H](O)[C@H]1O | IC50 (Liver carboxylesterase 1 [7]): 1.96 µM; Activity (Liver carboxylesterase 1 [8]): 50%; IC50 (Liver carboxylesterase 1 [9]): 2.51 µM; Activity (Liver carboxylesterase 1 [10]): 75%; IC50 (Liver carboxylesterase 1 [11]): 2.27 µM; Activity (Liver carboxylesterase 1 [12]): 20% |
|  |  |  | CC(C)Cc1ccc([C@H](C)C(=O)O[C@@H]2O[C@H](C(=O)O)[C@@H](O)[C@H](O)[C@H]2O)cc1 | half-life [13]: 3.3 h |
|  |  |  | CC(C)Cc1ccc([C@@H](C)C(=O)O[C@@H]2O[C@H](C(=O)O)[C@@H](O)[C@H](O)[C@H]2O)cc1 | half-life [13]: 1.8 h |
| 15.2 h |  | Not Active | CCCC(CCC)C(=O)O[C@@H]1O[C@H](C(=O)O)[C@@H](O)[C@H](O)[C@H]1O | half-life [14]: 60 h; inhibition (INH) (Liver carboxylesterase 1 [5]): Not Active |
| 1.77 h | 707 µM | Not Active | COc1ccc2cc([C@H](C)C(=O)O[C@@H]3O[C@H](C(=O)O)[C@@H](O)[C@H](O)[C@H]3O)ccc2c1 |  |
| 0.996 h | 468 µM | Not Active | COc1ccc2cc([C@@H](C)C(=O)O[C@@H]3O[C@H](C(=O)O)[C@@H](O)[C@H](O)[C@H]3O)ccc2c1 |  |
